US12059422B2 (MEI Pharma, Inc., priority 2011, dated 2024)

Tests used:
PI3Kγ = target: T1, PI3Kγ (Mus musculus, UniProt Q9JHG7); experiment: ELISA assay for PI3Kγ: in-cell ELISA, phosphorylation of AKT (Ser473) in RAW 264.7 cells; assay type: cell-based; settings: cellular, pAKT (Ser473), C5a stimulation, read-out: IC50 p110γ
T1 construct: endogenous in cells; host or cells: RAW 264.7 (ATCC #TIB-71)
Procedure: PI3K gamma (PI3Kγ) activity was determined by measuring the phosphorylation of AKT (Ser473) using an in-cell ELISA assay. RAW 264.7 (mouse macrophage) cells were obtained from ATCC (ATCC #TIB-71). Growth medium was DMEM (CellGro #CV-10-013-CV) supplemented with 10% fetal bovine serum, 100 IU/mL penicillin, 100 μg/mL streptomycin, and 1×MEM non-essential amino acids. Phosphate buffered saline (PBS) contained 2.7 M NaCl, 54 mM KCl, 86 mM […] (dibasic, anhydrous), and 28 mM […] (monobasic, anhydrous) at pH 7.2. Stimulation mixture (10×) was 500 ng/mL recombinant human complement component C5a (R&D systems #2037-C5-025) diluted in serum-free DMEM medium (CellGro #CV-10-013-CV). Compounds for testing were dissolved and serially diluted in 100% DMSO (total of 10 concentrations), then diluted in serum-free DMEM to 2× final assay concentration. Fixative solution (2×) was 8% formaldehyde (Amresco #M134) diluted in PBS. Permeabilization solution was PBS supplemented with 0.10% Triton X-100. Blocking buffer was obtained from LiCor (LiCor #927-40000). Wash buffer was PBS supplemented with 0.1% Tween-20. Primary antibody solution was rabbit anti-pAKT^S473 monoclonal antibody (Cell Signaling #4060) and mouse anti-total S6 (Santa Cruz #74459) diluted 1:500 and 1:2000, respectively, in the blocking buffer. Secondary antibody solution was IRDye 800CW-conjugated goat anti-rabbit IgG (LiCor #926-32211) and IRDye 680LT-conjugated goat anti-mouse IgG (LiCor #926-68020) diluted 1:1000 and 1:2000, respectively, in the blocking buffer.
RAW 264.7 cells were subcultured in growth medium and seeded into flat, clear bottom, 96-well plates (Corning #3904) at 70000 cells/well, then incubated overnight in a 37° C., 5% CO2 incubator. Growth medium in plates was replaced with 100 μL/well serum-free DMEM and incubated overnight in a 37° C., 5% CO2 incubator. Fresh serum-free DMEM (50 μL/well) was added to plates. Compound treatment was performed by adding 50 μL/well of 2× compound mixture to plates and incubating for 2 hrs at 37° C., 5% CO2, after which 11 μL/well of 10× stimulation mixture was added and plates were incubated for 3 min at 37° C., 5% CO2. Fixation was performed by adding 110 μL/well of 2× fixative solution to plates and incubating for 20 min at room temperature. Permeabilization was performed by replacing fixation solution with 150 μL/well permeabilization solution and incubating for 10 min at room temperature. Permeabilization was repeated (for a total of 2 times). Permeabilization solution was replaced with 100 μL/well blocking buffer and plates were incubated for 1 hr at room temperature, after which 100 μL/well of primary antibody solution was added and plates were incubated overnight at 4° C. Plates were washed with wash buffer, after which 100 μL/well of secondary antibody solution was added to the plates and incubated in the dark for 1 hr at room temperature. Plates were washed with wash buffer, followed by awash with PBS. After completely removing PBS, plates were scanned on the Licor Odyssey Imager. Images were quantified using Licor Odyssey application software. IC50 values were determined by curve fitting using a Collaborative Drug Discovery database (www.collaborativedrug.com).

PI3K gamma = target: T2, PI3K gamma (Homo sapiens, UniProt P48736); experiment: Luciferase-based luminescence assay (ADP Glo), PI3K gamma enzymatic activity; assay type: biochemical; settings: inhibition of enzymatic activity, 25 μM ATP, read-out: IC50 p110γ
T2 construct: purchased Invitrogen Corp., Carlsbad, CA, USA
T2 sequence (P48736 whole entry, species assumed): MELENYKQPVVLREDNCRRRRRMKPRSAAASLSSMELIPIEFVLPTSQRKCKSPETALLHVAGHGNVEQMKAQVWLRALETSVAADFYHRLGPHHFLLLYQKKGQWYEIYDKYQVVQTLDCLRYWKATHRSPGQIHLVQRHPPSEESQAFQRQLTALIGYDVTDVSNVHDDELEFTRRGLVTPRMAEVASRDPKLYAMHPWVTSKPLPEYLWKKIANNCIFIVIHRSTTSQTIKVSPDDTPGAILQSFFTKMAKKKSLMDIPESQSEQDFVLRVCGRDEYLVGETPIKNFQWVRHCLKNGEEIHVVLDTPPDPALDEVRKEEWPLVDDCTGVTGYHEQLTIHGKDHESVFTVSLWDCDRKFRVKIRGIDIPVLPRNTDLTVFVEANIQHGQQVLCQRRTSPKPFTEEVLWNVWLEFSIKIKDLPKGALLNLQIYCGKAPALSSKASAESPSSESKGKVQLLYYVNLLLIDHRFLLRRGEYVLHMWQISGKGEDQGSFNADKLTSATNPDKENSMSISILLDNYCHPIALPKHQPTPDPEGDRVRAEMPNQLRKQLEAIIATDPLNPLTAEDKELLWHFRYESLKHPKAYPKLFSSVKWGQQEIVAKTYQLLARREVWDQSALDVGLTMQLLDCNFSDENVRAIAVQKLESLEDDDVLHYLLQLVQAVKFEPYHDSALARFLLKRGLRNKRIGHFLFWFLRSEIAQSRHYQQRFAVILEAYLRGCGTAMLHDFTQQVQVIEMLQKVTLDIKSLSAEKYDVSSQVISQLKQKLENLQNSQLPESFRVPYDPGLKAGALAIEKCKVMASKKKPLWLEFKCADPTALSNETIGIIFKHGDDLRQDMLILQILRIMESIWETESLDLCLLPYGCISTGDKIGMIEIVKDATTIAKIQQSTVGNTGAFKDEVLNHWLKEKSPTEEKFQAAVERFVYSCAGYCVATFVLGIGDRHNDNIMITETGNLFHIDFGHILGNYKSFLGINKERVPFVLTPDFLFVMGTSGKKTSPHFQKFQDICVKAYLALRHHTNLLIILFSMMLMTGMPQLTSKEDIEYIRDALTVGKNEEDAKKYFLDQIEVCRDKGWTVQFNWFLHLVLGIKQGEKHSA
Procedure: PI3K catalyzes the conversion of phosphatidylinositol-4,5-bisphosphate (PIP2) and ATP to phosphatidylinositol-3,4,5-trisphosphate (PIP3) and ADP. For all assays, the reaction buffer comprised 50 mM HEPES, pH 7.5, 3 mM MgCl2, 1 mM EGTA, 100 mM NaCl, 0.03% CHAPS and 2 mM DTT. Compounds for testing were dissolved and serially diluted in 100% DMSO (total of 10 concentrations), then diluted 1:25 in reaction buffer.
PI3K beta and gamma enzymatic activity was determined by measuring the amount of ADP produced following the kinase reaction using a luciferase-based luminescence assay (ADP Glo®, Promega Corp., Madison, WI, USA). PI3K enzyme solutions were prepared by diluting PI3K beta (Millipore, Billerica, MA, USA) or PI3K gamma (Invitrogen Corp., Carlsbad, CA, USA) in reaction buffer, to 4× the final assay concentration (final concentrations of enzymes were 4.8 nM and 7.6 nM for PI3K beta and PI3K gamma respectively). A substrate solution was prepared by mixing PIP2 and ATP in reaction buffer at 2× the final assay concentration (final concentrations were 50 μM and 25 μM for PIP2 and ATP respectively). 2.5 μL each of the compound and kinase mixtures were added to individual wells of white low volume 384-well assay plates and mixed by shaking. The reactions were started by adding 5 μL of substrate mixture per well and shaking. The assay plates were covered and reactions were allowed to proceed for 1 hour. Then, 5 μL of reaction mix was transferred to another white low volume 384-well plate, and 5 μL of ADP-Glo™ reagent was added. The plates were briefly centrifuged and incubated for 40 minutes, after which 10 μL of kinase detection buffer was added. The plates then were centrifuged briefly, shaken slowly and equilibrated at room temperature for 30 minutes, after which luminescence was measured using a FlexStation plate reader (Molecular Devices, Sunnyvale, CA, USA). IC50 values were determined by curve fitting using Graphpad Prism software (Graphpad Software, La Jolla, CA, USA).

T1 sequence (Q9JHG7 whole entry): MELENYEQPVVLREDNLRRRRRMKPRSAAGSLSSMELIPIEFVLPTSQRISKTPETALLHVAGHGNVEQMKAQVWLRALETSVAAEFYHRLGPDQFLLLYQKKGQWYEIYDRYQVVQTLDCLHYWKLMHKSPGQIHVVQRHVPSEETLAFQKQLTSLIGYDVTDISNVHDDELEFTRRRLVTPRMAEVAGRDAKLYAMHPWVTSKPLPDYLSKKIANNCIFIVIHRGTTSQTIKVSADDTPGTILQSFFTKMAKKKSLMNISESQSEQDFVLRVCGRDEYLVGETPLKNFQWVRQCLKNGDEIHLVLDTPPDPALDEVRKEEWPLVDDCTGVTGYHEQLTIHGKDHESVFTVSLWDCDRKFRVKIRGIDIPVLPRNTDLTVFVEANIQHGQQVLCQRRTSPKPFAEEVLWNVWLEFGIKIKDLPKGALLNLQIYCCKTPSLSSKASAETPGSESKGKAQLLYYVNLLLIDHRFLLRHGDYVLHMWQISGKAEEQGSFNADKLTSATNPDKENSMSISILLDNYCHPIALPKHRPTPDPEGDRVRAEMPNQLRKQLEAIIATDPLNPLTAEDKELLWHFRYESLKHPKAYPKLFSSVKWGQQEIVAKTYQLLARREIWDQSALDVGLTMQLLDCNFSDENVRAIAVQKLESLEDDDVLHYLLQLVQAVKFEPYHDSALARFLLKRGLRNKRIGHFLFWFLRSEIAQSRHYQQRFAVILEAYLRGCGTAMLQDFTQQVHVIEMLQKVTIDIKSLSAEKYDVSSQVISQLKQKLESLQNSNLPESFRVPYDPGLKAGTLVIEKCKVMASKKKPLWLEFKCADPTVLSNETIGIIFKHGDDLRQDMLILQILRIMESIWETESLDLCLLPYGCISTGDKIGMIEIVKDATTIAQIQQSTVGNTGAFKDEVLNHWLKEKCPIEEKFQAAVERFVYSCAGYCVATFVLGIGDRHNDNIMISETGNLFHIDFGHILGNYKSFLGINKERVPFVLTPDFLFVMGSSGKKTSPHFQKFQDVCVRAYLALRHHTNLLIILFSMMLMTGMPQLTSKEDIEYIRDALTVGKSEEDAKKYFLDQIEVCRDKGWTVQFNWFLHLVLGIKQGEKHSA

IC50 (PI3Kγ) [nM] | IC50 (PI3K gamma) [nM] | Structure (SMILES)
200 to 500 | 200 to 500 | CC(C)(Cc1ccccc1)Nc1nc(N2CCOCC2)nc(-n2c(C(F)F)nc3ccccc32)n1 [Compound A14, 4-(2-(difluoromethyl)-1H-benzo[d]imidazol-1-yl)-N-(2-methyl-1-phenylpropan-2-yl)-6-morpholino-1,3,5-triazin-2-amine]
– | 200 to 500 | COc1ccccc1CC(C)(C)Nc1nc(N2CCOCC2)nc(-n2c(C(F)F)nc3ccccc32)n1 [Compound A19, 4-(2-(difluoromethyl)-1H-benzo[d]imidazol-1-yl)-N-(1-(2-methoxyphenyl)-2-methylpropan-2-yl)-6-morpholino-1,3,5-triazin-2-amine]
200 to 500 | > 500 | COc1cccc(CC(C)(C)Nc2nc(N3CCOCC3)nc(-n3c(C(F)F)nc4ccccc43)n2)c1 [Compound A21, 4-(2-(difluoromethyl)-1H-benzo[d]imidazol-1-yl)-N-(1-(3-methoxyphenyl)-2-methylpropan-2-yl)-6-morpholino-1,3,5-triazin-2-amine]
200 to 500 | 200 to 500 | CC(C)(Cc1ccc(F)cc1)Nc1nc(N2CCOCC2)nc(-n2c(C(F)F)nc3ccccc32)n1 [Compound A22, 4-(2-(difluoromethyl)-1H-benzo[d]imidazol-1-yl)-N-(1-(4-fluorophenyl)-2-methylpropan-2-yl)-6-morpholino-1,3,5-triazin-2-amine]
– | ≤ 100 | CC(C)(Cc1cccc2ccccc12)Nc1nc(N2CCOCC2)nc(-n2c(C(F)F)nc3ccccc32)n1 [Compound A27, 4-(2-(difluoromethyl)-1H-benzo[d]imidazol-1-yl)-N-(2-methyl-1-(naphthalen-1-yl)propan-2-yl)-6-morpholino-1,3,5-triazin-2-amine]
– | 200 to 500 | CC(C)(Cc1ccccc1-c1ccncc1)Nc1nc(N2CCOCC2)nc(-n2c(C(F)F)nc3ccccc32)n1 [Compound A33, 4-(2-(difluoromethyl)-1H-benzo[d]imidazol-1-yl)-N-(2-methyl-1-(2-(pyridin-4-yl)phenyl)propan-2-yl)-6-morpholino-1,3,5-triazin-2-amine]
200 to 500 | > 500 | CN1CCC(c2ccccc2CC(C)(C)Nc2nc(N3CCOCC3)nc(-n3c(C(F)F)nc4ccccc43)n2)CC1 [Compound A35, 4-(2-(difluoromethyl)-1H-benzo[d]imidazol-1-yl)-N-(2-methyl-1-(2-(1-methylpiperidin-4-yl)phenyl)propan-2-yl)-6-morpholino-1,3,5-triazin-2-amine]
200 to 500 | 200 to 500 | CC(C)(Cc1ccccc1-c1cccnc1)Nc1nc(N2CCOCC2)nc(-n2c(C(F)F)nc3ccccc32)n1 [Compound A40, 4-(2-(difluoromethyl)-1H-benzo[d]imidazol-1-yl)-N-(2-methyl-1-(2-(pyridin-3-yl)phenyl)propan-2-yl)-6-morpholino-1,3,5-triazin-2-amine]
≤ 100 | 200 to 500 | Cn1cc(-c2ccccc2CC(C)(C)Nc2nc(N3CCOCC3)nc(-n3c(C(F)F)nc4ccccc43)n2)cn1 [Compound A45, 4-(2-(difluoromethyl)-1H-benzo[d]imidazol-1-yl)-N-(2-methyl-1-(2-(1-methyl-1H-pyrazol-4-yl)phenyl)propan-2-yl)-6-morpholino-1,3,5-triazin-2-amine]
100 to 200 | – | CN1CCC(c2ccccc2CC(C)(C)Nc2nc(N3CCOCC3)nc(-n3c(C(F)F)nc4ccccc43)n2)C1 (stereo not drawn) [Compound A75, 4-(2-(difluoromethyl)-1H-benzo[d]imidazol-1-yl)-N-(2-methyl-1-(2-(1-methylpyrrolidin-3-yl)phenyl)propan-2-yl)-6-morpholino-1,3,5-triazin-2-amine]

More lines, now with the values behind:

Structure (SMILES) | IC50 (PI3Kγ) [nM] | IC50 (PI3K gamma) [nM]
CC(C)(Cc1ccccc1F)Nc1nc(N2CCOCC2)nc(-n2c(C(F)F)nc3ccccc32)n1 [Compound A15, 4-(2-(difluoromethyl)-1H-benzo[d]imidazol-1-yl)-N-(1-(2-fluorophenyl)-2-methylpropan-2-yl)-6-morpholino-1,3,5-triazin-2-amine] | 200 to 500 | > 500
CC(C)(Cc1ccccc1Cl)Nc1nc(N2CCOCC2)nc(-n2c(C(F)F)nc3ccccc32)n1 [Compound A16, 4-(2-(difluoromethyl)-1H-benzo[d]imidazol-1-yl)-N-(1-(2-chlorophenyl)-2-methylpropan-2-yl)-6-morpholino-1,3,5-triazin-2-amine] | > 500 | 200 to 500
Cc1ccccc1CC(C)(C)Nc1nc(N2CCOCC2)nc(-n2c(C(F)F)nc3ccccc32)n1 [Compound A18, 4-(2-(difluoromethyl)-1H-benzo[d]imidazol-1-yl)-N-(2-methyl-1-(o-tolyl)propan-2-yl)-6-morpholino-1,3,5-triazin-2-amine] | 200 to 500 | 200 to 500
CC(C)(Cc1cccc(F)c1)Nc1nc(N2CCOCC2)nc(-n2c(C(F)F)nc3ccccc32)n1 [Compound A39, 4-(2-(difluoromethyl)-1H-benzo[d]imidazol-1-yl)-N-(1-(3-fluorophenyl)-2-methylpropan-2-yl)-6-morpholino-1,3,5-triazin-2-amine] | 100 to 200 | 200 to 500
COc1cc(-c2ccccc2CC(C)(C)Nc2nc(N3CCOCC3)nc(-n3c(C(F)F)nc4ccccc43)n2)ccn1 [Compound A41, 4-(2-(difluoromethyl)-1H-benzo[d]imidazol-1-yl)-N-(1-(2-(2-methoxypyridin-4-yl)phenyl)-2-methylpropan-2-yl)-6-morpholino-1,3,5-triazin-2-amine] | > 500 | > 500
Cc1cc(-c2ccccc2CC(C)(C)Nc2nc(N3CCOCC3)nc(-n3c(C(F)F)nc4ccccc43)n2)ccn1 [Compound A43, 4-(2-(difluoromethyl)-1H-benzo[d]imidazol-1-yl)-N-(2-methyl-1-(2-(2-methylpyridin-4-yl)phenyl)propan-2-yl)-6-morpholino-1,3,5-triazin-2-amine] | 200 to 500 | > 500
CC(C)(Cc1ccccc1-c1cn[nH]c1)Nc1nc(N2CCOCC2)nc(-n2c(C(F)F)nc3ccccc32)n1 [Compound A44, 4-(2-(difluoromethyl)-1H-benzo[d]imidazol-1-yl)-N-(1-(2-(1H-pyrazol-4-yl)phenyl)-2-methylpropan-2-yl)-6-morpholino-1,3,5-triazin-2-amine] | ≤ 100 | 100 to 200
